Bridge positions count the residues as written; N and C are the ends. Square brackets hold non-standard residues; d marks the D form. Peptide text beside a SMILES is read from it.
system: H1N1 A/PR/8/1934; settings: A/PR/8/1934, 48 h

Row | SMILES | IC50 [nM]
1 | CC[C@@H](C)[C@H]1NC(=O)[C@@H](Cc2ccccc2)NC(=O)[C@@H]([C@H](C)O)NC(=O)[C@@H](Cc2ccccc2)NC(=O)[C@@H](Cc2c[nH]c3ccccc23)NC(=O)[C@@H](Cc2c[nH]c3ccccc23)NC(=O)[C@H](NC(=O)[C@H](CCCCN)NC(=O)[C@H](CCCCN)NC(=O)[C@H](CCCNC(=N)N)NC(=O)[C@@H](N)CCCNC(=N)N)CSSC[C@H](C(=O)O)NC(=O)[C@@H](CC(N)=O)NC1=O [PSP V A19, H-RRKKcwwftfinc-OH] (H-RRKK[dC][dW][dW][dF][dT][dF][dI][dN][dC]-OH; disulfide 5-13) | 20

same assay, conditions: A/PR/8/1934, 48 h, 1 μM

Row | SMILES | % Inhibition [%]
2 | CC[C@@H](C)[C@H]1NC(=O)[C@@H](Cc2ccccc2)NC(=O)[C@@H]([C@H](C)O)NC(=O)[C@@H](Cc2ccccc2)NC(=O)[C@@H](Cc2c[nH]c3ccccc23)NC(=O)[C@@H](Cc2c[nH]c3ccccc23)NC(=O)[C@H](NC(=O)[C@H](CCCCN)NC(=O)[C@H](CCCCN)NC(=O)[C@H](CCCNC(=N)N)NC(=O)[C@@H](N)CCCNC(=N)N)CSSC[C@H](C(=O)O)NC(=O)[C@@H]([C@H](C)O)NC1=O [PSP VI A17, H-RRKKcwwftfitc-OH] (H-RRKK[dC][dW][dW][dF][dT][dF][dI][dT][dC]-OH; disulfide 5-13) | 27
3 | CC[C@@H](C)[C@H]1NC(=O)[C@@H](Cc2ccccc2)NC(=O)[C@@H]([C@H](C)O)NC(=O)[C@@H](Cc2ccccc2)NC(=O)[C@@H](Cc2c[nH]c3ccccc23)NC(=O)[C@@H](CCC(N)=O)NC(=O)[C@H](NC(=O)[C@H](CCCCN)NC(=O)[C@H](CCCCN)NC(=O)[C@H](CCCNC(=N)N)NC(=O)[C@@H](N)CCCNC(=N)N)CSSC[C@H](C(=O)O)NC(=O)[C@@H](CC(N)=O)NC1=O [PSP V A14, H-RRKKcqwftfinc-OH] (H-RRKK[dC][dQ][dW][dF][dT][dF][dI][dN][dC]-OH; disulfide 5-13) | 44
4 | CC[C@@H](C)[C@H]1NC(=O)[C@@H](Cc2ccccc2)NC(=O)[C@@H]([C@H](C)O)NC(=O)[C@@H](Cc2ccccc2)NC(=O)[C@@H](Cc2c[nH]c3ccccc23)NC(=O)[C@@H](CS)NC(=O)[C@H](NC(=O)[C@H](CCCCN)NC(=O)[C@H](CCCCN)NC(=O)[C@H](CCCNC(=N)N)NC(=O)[C@@H](N)CCCNC(=N)N)CSSC[C@H](C(=O)O)NC(=O)[C@@H](CC(N)=O)NC1=O [PSP V A2, H-RRKKccwftfinc-OH] (H-RRKK[dC][dC][dW][dF][dT][dF][dI][dN][dC]-OH; disulfide 5-13) | <20
5 | CC[C@@H](C)[C@H]1NC(=O)[C@@H](Cc2ccccc2)NC(=O)[C@@H]([C@H](C)O)NC(=O)[C@@H](Cc2ccccc2)NC(=O)[C@@H](Cc2c[nH]c3ccccc23)NC(=O)[C@@H](Cc2c[nH]c3ccccc23)NC(=O)[C@H](NC(=O)[C@H](CCCCN)NC(=O)[C@H](CCCCN)NC(=O)[C@H](CCCNC(=N)N)NC(=O)[C@@H](N)CCCNC(=N)N)CSSC[C@H](C(=O)O)NC(=O)[C@H]2CCCN2C1=O [PSP VI A13, H-RRKKcwwftfipc-OH] (H-RRKK[dC][dW][dW][dF][dT][dF][dI][dP][dC]-OH; disulfide 5-13) | 42
6 | CC[C@@H](C)[C@H]1NC(=O)[C@@H](Cc2ccccc2)NC(=O)[C@@H]([C@H](C)O)NC(=O)[C@@H](Cc2ccccc2)NC(=O)[C@@H](Cc2c[nH]c3ccccc23)NC(=O)[C@@H](Cc2c[nH]c3ccccc23)NC(=O)[C@H](NC(=O)[C@H](CCCCN)NC(=O)[C@H](CCCCN)NC(=O)[C@H](CCCNC(=N)N)NC(=O)[C@@H](N)CCCNC(=N)N)CSSC[C@H](C(=O)O)NC(=O)CNC1=O [PSP VI A6, H RRKKcwwftfiGc-OH] (H-RRKK[dC][dW][dW][dF][dT][dF][dI]G[dC]-OH; disulfide 5-13) | 69
7 | CC[C@@H](C)[C@H]1NC(=O)[C@@H](Cc2ccccc2)NC(=O)[C@@H]([C@H](C)O)NC(=O)[C@@H](Cc2ccccc2)NC(=O)[C@@H](Cc2c[nH]c3ccccc23)NC(=O)[C@@H](Cc2c[nH]c3ccccc23)NC(=O)[C@H](NC(=O)[C@H](CCCCN)NC(=O)[C@H](CCCCN)NC(=O)[C@H](CCCNC(=N)N)NC(=O)[C@@H](N)CCCNC(=N)N)CSSC[C@H](C(=O)O)NC(=O)[C@@H](C(C)C)NC1=O [PSP VI A18, H-RRKKcwwftfivc-OH] (H-RRKK[dC][dW][dW][dF][dT][dF][dI][dV][dC]-OH; disulfide 5-13) | 53
8 | CC[C@@H](C)[C@H]1NC(=O)[C@@H](Cc2ccccc2)NC(=O)[C@@H]([C@H](C)O)NC(=O)[C@@H](Cc2ccccc2)NC(=O)[C@@H](Cc2c[nH]c3ccccc23)NC(=O)[C@@H](CC(N)=O)NC(=O)[C@H](NC(=O)[C@H](CCCCN)NC(=O)[C@H](CCCCN)NC(=O)[C@H](CCCNC(=N)N)NC(=O)[C@@H](N)CCCNC(=N)N)CSSC[C@H](C(=O)O)NC(=O)[C@@H](CC(N)=O)NC1=O [PSP V A12, H-RRKKcnwftfinc-OH] (H-RRKK[dC][dN][dW][dF][dT][dF][dI][dN][dC]-OH; disulfide 5-13) | <20
9 | CC[C@@H](C)[C@H]1NC(=O)[C@@H](Cc2ccccc2)NC(=O)[C@@H]([C@H](C)O)NC(=O)[C@@H](Cc2ccccc2)NC(=O)[C@@H](Cc2c[nH]c3ccccc23)NC(=O)[C@@H](Cc2c[nH]c3ccccc23)NC(=O)[C@H](NC(=O)[C@H](CCCCN)NC(=O)[C@H](CCCCN)NC(=O)[C@H](CCCNC(=N)N)NC(=O)[C@@H](N)CCCNC(=N)N)CSSC[C@H](C(=O)O)NC(=O)[C@@H](Cc2ccccc2)NC1=O [PSP VI A5, H-RRKKcwwftfifc-OH] (H-RRKK[dC][dW][dW][dF][dT][dF][dI][dF][dC]-OH; disulfide 5-13) | 60
10 | CC[C@@H](C)[C@H]1NC(=O)[C@@H](Cc2ccccc2)NC(=O)[C@@H]([C@H](C)O)NC(=O)[C@@H](Cc2ccccc2)NC(=O)[C@@H](Cc2c[nH]c3ccccc23)NC(=O)CNC(=O)[C@H](NC(=O)[C@H](CCCCN)NC(=O)[C@H](CCCCN)NC(=O)[C@H](CCCNC(=N)N)NC(=O)[C@@H](N)CCCNC(=N)N)CSSC[C@H](C(=O)O)NC(=O)[C@@H](CC(N)=O)NC1=O [PSP V A6, H-RRKKcGwftfinc-OH] (H-RRKK[dC]G[dW][dF][dT][dF][dI][dN][dC]-OH; disulfide 5-13) | <20
11 | CC[C@@H](C)[C@H]1NC(=O)[C@@H](Cc2ccccc2)NC(=O)[C@@H]([C@H](C)O)NC(=O)[C@@H](Cc2ccccc2)NC(=O)[C@@H](Cc2c[nH]c3ccccc23)NC(=O)[C@@H](Cc2c[nH]c3ccccc23)NC(=O)[C@H](NC(=O)[C@H](CCCCN)NC(=O)[C@H](CCCCN)NC(=O)[C@H](CCCNC(=N)N)NC(=O)[C@@H](N)CCCNC(=N)N)CSSC[C@H](C(=O)O)NC(=O)[C@@H](CC(N)=O)NC1=O [PSP V A19, H-RRKKcwwftfinc-OH] (H-RRKK[dC][dW][dW][dF][dT][dF][dI][dN][dC]-OH; disulfide 5-13) | 97
12 | CC[C@@H](C)[C@H]1NC(=O)[C@@H](Cc2ccccc2)NC(=O)[C@@H]([C@H](C)O)NC(=O)[C@@H](Cc2ccccc2)NC(=O)[C@@H](Cc2c[nH]c3ccccc23)NC(=O)[C@@H](CC(=O)O)NC(=O)[C@H](NC(=O)[C@H](CCCCN)NC(=O)[C@H](CCCCN)NC(=O)[C@H](CCCNC(=N)N)NC(=O)[C@@H](N)CCCNC(=N)N)CSSC[C@H](C(=O)O)NC(=O)[C@@H](CC(N)=O)NC1=O [PSP V A3, H-RRKKcdwftfinc-OH] (H-RRKK[dC][dD][dW][dF][dT][dF][dI][dN][dC]-OH; disulfide 5-13) | <20
13 | CC[C@@H](C)[C@H]1NC(=O)[C@@H](Cc2ccccc2)NC(=O)[C@@H]([C@H](C)O)NC(=O)[C@@H](Cc2ccccc2)NC(=O)[C@@H](Cc2c[nH]c3ccccc23)NC(=O)[C@@H](Cc2ccccc2)NC(=O)[C@H](NC(=O)[C@H](CCCCN)NC(=O)[C@H](CCCCN)NC(=O)[C@H](CCCNC(=N)N)NC(=O)[C@@H](N)CCCNC(=N)N)CSSC[C@H](C(=O)O)NC(=O)[C@@H](CC(N)=O)NC1=O [PSP V A5, H-RRKKcfWftfinc-OH] (H-RRKK[dC][dF][dW][dF][dT][dF][dI][dN][dC]-OH; disulfide 5-13) | 57
14 | CC[C@@H](C)[C@H]1NC(=O)[C@@H](Cc2ccccc2)NC(=O)[C@@H]([C@H](C)O)NC(=O)[C@@H](Cc2ccccc2)NC(=O)[C@@H](Cc2c[nH]c3ccccc23)NC(=O)[C@@H](Cc2c[nH]c3ccccc23)NC(=O)[C@H](NC(=O)[C@H](CCCCN)NC(=O)[C@H](CCCCN)NC(=O)[C@H](CCCNC(=N)N)NC(=O)[C@@H](N)CCCNC(=N)N)CSSC[C@H](C(=O)O)NC(=O)[C@@H](CO)NC1=O [PSP VI A16, H-RRKKcwwftfisc-OH] (H-RRKK[dC][dW][dW][dF][dT][dF][dI][dS][dC]-OH; disulfide 5-13) | 74
15 | CC[C@@H](C)[C@H]1NC(=O)[C@@H](Cc2ccccc2)NC(=O)[C@@H]([C@H](C)O)NC(=O)[C@@H](Cc2ccccc2)NC(=O)[C@@H](Cc2c[nH]c3ccccc23)NC(=O)[C@@H](Cc2c[nH]c3ccccc23)NC(=O)[C@H](NC(=O)[C@H](CCCCN)NC(=O)[C@H](CCCCN)NC(=O)[C@H](CCCNC(=N)N)NC(=O)[C@@H](N)CCCNC(=N)N)CSSC[C@H](C(=O)O)NC(=O)[C@@H](CCCCN)NC1=O [PSP VI A9, H-RRKKcwwftfikc-OH] (H-RRKK[dC][dW][dW][dF][dT][dF][dI][dK][dC]-OH; disulfide 5-13) | 11
16 | CC[C@@H](C)[C@H]1NC(=O)[C@@H](Cc2ccccc2)NC(=O)[C@@H]([C@H](C)O)NC(=O)[C@@H](Cc2ccccc2)NC(=O)[C@@H](Cc2c[nH]c3ccccc23)NC(=O)[C@@H](Cc2c[nH]c3ccccc23)NC(=O)[C@H](NC(=O)[C@H](CCCCN)NC(=O)[C@H](CCCCN)NC(=O)[C@H](CCCNC(=N)N)NC(=O)[C@@H](N)CCCNC(=N)N)CSSC[C@H](C(=O)O)NC(=O)[C@@H](CCCNC(=N)N)NC1=O [PSP VI A15, H-RRKKcwwftfirc-OH] (H-RRKK[dC][dW][dW][dF][dT][dF][dI][dR][dC]-OH; disulfide 5-13) | 92
17 | CC[C@@H](C)[C@H]1NC(=O)[C@@H](Cc2ccccc2)NC(=O)[C@@H]([C@H](C)O)NC(=O)[C@@H](Cc2ccccc2)NC(=O)[C@@H](Cc2c[nH]c3ccccc23)NC(=O)[C@@H](Cc2c[nH]c3ccccc23)NC(=O)[C@H](NC(=O)[C@H](CCCCN)NC(=O)[C@H](CCCCN)NC(=O)[C@H](CCCNC(=N)N)NC(=O)[C@@H](N)CCCNC(=N)N)CSSC[C@H](C(=O)O)NC(=O)[C@@H](CC(C)C)NC1=O [PSP VI A10, H-RRKKcwwftfilc-OH] (H-RRKK[dC][dW][dW][dF][dT][dF][dI][dL][dC]-OH; disulfide 5-13) | 48
18 | CC[C@@H](C)[C@H]1NC(=O)[C@@H](Cc2ccccc2)NC(=O)[C@@H]([C@H](C)O)NC(=O)[C@@H](Cc2ccccc2)NC(=O)[C@@H](Cc2c[nH]c3ccccc23)NC(=O)[C@@H](Cc2c[nH]cn2)NC(=O)[C@H](NC(=O)[C@H](CCCCN)NC(=O)[C@H](CCCCN)NC(=O)[C@H](CCCNC(=N)N)NC(=O)[C@@H](N)CCCNC(=N)N)CSSC[C@H](C(=O)O)NC(=O)[C@@H](CC(N)=O)NC1=O [PSP V A7, H-RRKKchwitfinc-OH] (H-RRKK[dC][dH][dW][dF][dT][dF][dI][dN][dC]-OH; disulfide 5-13) | 67
